Values of other authors, collected in US12403100B2, “Natural combination products and methods for regulation of total blood cholesterol” (priority 2018, dated 2025).

Legend:
[1] = in vivo
[2] = molecular target: T1, pancreatic cholesterol esterase (Sus scrofa, UniProt A0A286ZKB1); details: depending on their concentration
T1 sequence (A0A286ZKB1 1-682): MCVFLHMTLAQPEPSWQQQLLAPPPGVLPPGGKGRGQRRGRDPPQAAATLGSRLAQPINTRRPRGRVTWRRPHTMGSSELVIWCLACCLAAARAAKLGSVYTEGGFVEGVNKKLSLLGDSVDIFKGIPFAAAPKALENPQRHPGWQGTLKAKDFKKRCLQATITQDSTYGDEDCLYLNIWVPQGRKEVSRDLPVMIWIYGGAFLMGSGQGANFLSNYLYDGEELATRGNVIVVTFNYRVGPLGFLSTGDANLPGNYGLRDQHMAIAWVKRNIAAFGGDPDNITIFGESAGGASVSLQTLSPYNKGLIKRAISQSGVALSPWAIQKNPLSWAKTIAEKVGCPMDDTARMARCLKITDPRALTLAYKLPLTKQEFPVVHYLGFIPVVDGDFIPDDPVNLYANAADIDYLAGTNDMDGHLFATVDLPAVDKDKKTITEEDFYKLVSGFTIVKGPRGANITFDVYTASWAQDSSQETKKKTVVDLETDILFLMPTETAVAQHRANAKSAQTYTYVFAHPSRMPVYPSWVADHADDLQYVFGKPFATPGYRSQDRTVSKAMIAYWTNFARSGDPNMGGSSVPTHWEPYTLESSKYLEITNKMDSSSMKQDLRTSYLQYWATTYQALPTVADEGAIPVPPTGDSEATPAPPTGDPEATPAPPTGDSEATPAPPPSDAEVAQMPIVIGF

lipoprotein mycelia = details: concentration of 0.2 mg/mL
[3] = in vivo; remark: listed apart in the source
CYP 3A4 = CYP 3A4 (Homo sapiens, UniProt P08684)
CYP 3A4, sequence (P08684 whole entry): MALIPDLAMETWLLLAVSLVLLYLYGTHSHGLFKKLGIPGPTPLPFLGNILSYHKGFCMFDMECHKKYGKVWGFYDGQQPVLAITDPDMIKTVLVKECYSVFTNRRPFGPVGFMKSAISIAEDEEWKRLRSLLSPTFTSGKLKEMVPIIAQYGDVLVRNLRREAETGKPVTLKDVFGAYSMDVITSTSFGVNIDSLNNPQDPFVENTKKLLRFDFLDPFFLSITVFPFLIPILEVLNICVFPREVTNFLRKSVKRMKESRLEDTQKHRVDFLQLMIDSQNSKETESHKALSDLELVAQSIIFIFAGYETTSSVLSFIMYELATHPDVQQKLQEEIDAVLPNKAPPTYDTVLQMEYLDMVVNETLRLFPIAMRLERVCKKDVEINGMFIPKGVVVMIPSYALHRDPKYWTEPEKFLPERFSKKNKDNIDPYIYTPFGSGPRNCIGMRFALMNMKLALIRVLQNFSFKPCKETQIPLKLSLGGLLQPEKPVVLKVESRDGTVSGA

[4] = aqueous-acidic medium
[5] = not given; remark: listed apart in the source
[6] = not given; remark: listed apart in the source
[7] = tested on: hyperlipidemic patients with hypertension; details: intake of 20 mg of lovastatin, same time (8 weeks)
[8] = Reynoso et al. 2002
CYP 2C9 = CYP 2C9 (Homo sapiens, UniProt P11712)
CYP 2C9, sequence (P11712 whole entry): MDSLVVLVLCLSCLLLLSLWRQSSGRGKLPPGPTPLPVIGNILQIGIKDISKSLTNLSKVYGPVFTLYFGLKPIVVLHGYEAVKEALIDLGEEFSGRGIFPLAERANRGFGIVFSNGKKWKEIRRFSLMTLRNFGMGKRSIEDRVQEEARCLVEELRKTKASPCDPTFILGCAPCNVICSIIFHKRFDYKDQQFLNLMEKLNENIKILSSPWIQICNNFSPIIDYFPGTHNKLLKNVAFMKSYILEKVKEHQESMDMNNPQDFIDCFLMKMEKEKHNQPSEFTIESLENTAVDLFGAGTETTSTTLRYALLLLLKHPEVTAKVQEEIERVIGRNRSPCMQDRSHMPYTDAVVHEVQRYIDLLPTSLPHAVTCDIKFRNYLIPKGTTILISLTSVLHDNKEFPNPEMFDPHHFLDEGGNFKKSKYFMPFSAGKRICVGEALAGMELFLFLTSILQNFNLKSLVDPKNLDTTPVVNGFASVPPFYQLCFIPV

CCC(C)(C)C(=O)O[C@H]1C[C@@H](C)C=C2C=C[C@H](C)[C@H](CC[C@@H]3C[C@@H](O)CC(=O)O3)[C@H]21 [Simvastatin]
Plasma half-life [1]: 1.3 to 2.4 h

O=C(O)c1cc(O)c(O)c(O)c1 [gallic acid]
inhibition of pancreatic cholesterol ester [2]: significantly inhibit | reduction of the formation of lipoprotein mycelia (lipoprotein mycelia): 27.26±2.17%

CC[C@H](C)C(=O)O[C@H]1C[C@H](O)C=C2C=C[C@H](C)[C@H](CC[C@@H](O)C[C@@H](O)CC(=O)O)[C@H]21 [Pravastatin]
lipophilic or hydrophilic: hydrophilic | Passing through the blood-brain barrier [3]: No | Absorption (%) [1]: 35% | Plasma half-life [1]: 0.9 to 1.6 h | Renal excretion (%) [1]: 60% | Binding to Plasma proteins (%) (plasma proteins): 40-50% | Metabolism by CYP450 (CYP450): No | metabolized by CYP 3A4 (CYP 3A4): not metabolized

CC[C@H](C)C(=O)O[C@H]1C[C@@H](C)C=C2C=C[C@H](C)[C@H](CC[C@@H](O)C[C@@H](O)CC(=O)O)[C@H]21 [Mevinolinic acid]
energy required for lactonization of mevinolinic acid in lovastatin [4]: 4.93 kcal/mol | solubility in fat [5]: with more difficultly in fat | solubility in water [5]: dissolves easily in water

CC[C@H](C)C(=O)O[C@H]1C[C@@H](C)C=C2C=C[C@H](C)[C@H](CC[C@@H]3C[C@@H](O)CC(=O)O3)[C@H]21 [Lovastatin]
lipophilic or hydrophilic: lipophilic | remaining share of the maximal concentration ([6]; after about 24 hours): 10% | absorbed in the gastrointestinal tract ([6]; from the taken dose): about 30% | passage through the placental barrier ([6]; in vivo): passes through the placental barrier | share converted to beta hydroxyl acid ([6]; in vivo): about 30% | time to maximal hypolipidemic effect ([6]; in vivo): 4-6 weeks | time to overt hypolipidemic effect ([6]; in vivo): 2 weeks | time until maximal concentration is reached ([6]; in vivo): about 2 hours | eliminated in excrement ([6]; taken orally): 83% | eliminated in the urine ([6]; taken orally): 10% | energy released by the reverse process (hydrolysis) [4]: 2.42 kcal/mol | solubility in fat [5]: dissolves more easily in fat | solubility in water [5]: difficult to dissolve in water | reduction in cholesterol [7]: 19% | Absorption (%) [1]: 31% | Plasma half-life [1]: 2 to 4 h | Renal excretion (%) [1]: 30% | Binding to Plasma proteins (%) (plasma proteins): 95% | bound to plasma proteins (plasma proteins; lovastatin and its metabolites): > 95% | absorbed from the digestive tract [8]: ~30%

CC(C)c1nc(N(C)S(C)(=O)=O)nc(-c2ccc(F)cc2)c1/C=C/[C@@H](O)C[C@@H](O)CC(=O)O [rosuvastatin]
lipophilic or hydrophilic: hydrophilic | metabolized by CYP 2C9 (CYP 2C9): metabolized | metabolized by CYP 3A4 (CYP 3A4): not metabolized

catechin
inhibition of pancreatic cholesterol ester [2]: significantly inhibit | reduction of the formation of lipoprotein mycelia (lipoprotein mycelia): 11.88±0.75%

CC(C)n1c(/C=C/C(O)CC(O)CC(=O)O)c(-c2ccc(F)cc2)c2ccccc21 (centres unmarked) [Fluvastatin]
lipophilic or hydrophilic: lipophilic | Passing through the blood-brain barrier [3]: No | metabolized by CYP 2C9 (CYP 2C9): metabolized | Plasma half-life [1]: 1.2 h | Metabolism by CYP450 (CYP450): Yes
